# Data published in ChEMBL document CHEMBL2385007, “Synthesis and biological evaluation of prodrugs of 2-fluoro-2-deoxyribose-1-phosphate and 2,2-difluoro-2-deoxyribose-1-phosphate” (Bioorg Med Chem Lett, 2013).
# Assays:
# [1] = Half life of the compound in fluka 82564 buffer at pH 2 by HPLC analysis; format: physicochemical
# [2] = Half life of the compound in fluka 82567 buffer at pH 7 by HPLC analysis; format: physicochemical
# [3] = test system: Human immunodeficiency virus 1; assay: Antiviral activity against HIV-1 3B infected in human CEM cells assessed as HIV-induced host giant cell formation after 4 days by microscopic analysis; format: functional, organism-based; details: Human immunodeficiency virus 1, 3B, CCRF-CEM, 96 h
# [4] = test system: Human immunodeficiency virus 2; assay: Antiviral activity against HIV-2 ROD infected in human CEM cells assessed as HIV-induced host giant cell formation after 4 days by microscopic analysis; format: functional, organism-based; details: Human immunodeficiency virus 2, ISOLATE ROD, CCRF-CEM, 96 h
# [5] = Cytotoxicity against human HEL cells; format: cell-based
# [6] = test system: Human alphaherpesvirus 1; assay: Antiviral activity against thymidine kinase-deficient ACV-resistant HSV-1 KOS infected in HEL cells assessed as inhibition of virus-induced cytopathicity; format: functional, organism-based; details: Human alphaherpesvirus 1, KOS
# [7] = test system: Feline coronavirus; assay: Antiviral activity against Feline coronavirus in cat CrFK cells assessed as plaque formation; format: functional, organism-based; details: Alphacoronavirus 1, CRFK
# [8] = Stability of the compound at -20 degC assessed as compound degradation after 4 months by HPLC analysis; format: physicochemical; details: 2922 h
# [9] = test system: Felid alphaherpesvirus 1; assay: Antiviral activity against Feline herpesvirus in cat CrFK cells assessed as plaque formation; format: functional, organism-based; details: Felid alphaherpesvirus 1, CRFK
# [10] = Stability of the compound in fluka 82567 buffer at pH 7 assessed as compound degradation after 2 days by HPLC analysis; format: physicochemical; details: pH 7, 48 h
# [11] = test system: Human alphaherpesvirus 2; assay: Antiviral activity against HSV-2 G infected in HEL cells assessed as inhibition of virus-induced cytopathicity; format: functional, organism-based; details: Human alphaherpesvirus 2, strain G
# [12] = test system: Human alphaherpesvirus 1; assay: Antiviral activity against HSV-1 KOS infected in HEL cells assessed as inhibition of virus-induced cytopathicity; format: functional, organism-based; details: Human alphaherpesvirus 1, KOS
# [13] = test system: CCRF-CEM; assay: Cytotoxicity against human CEM cells; format: cell-based
# [14] = test system: L1210; assay: Cytotoxicity against mouse L1210 cells; format: cell-based
# [15] = Stability of the compound in fluka 82571 buffer at pH 5 assessed as compound degradation after 2 days by HPLC analysis; format: physicochemical; details: pH 5, 48 h
# [16] = test system: Vesicular stomatitis virus; assay: Antiviral activity against Vesicular somatitis virus infected in HEL cells assessed as inhibition of virus-induced cytopathicity; format: functional, organism-based
# [17] = test system: Human alphaherpesvirus 3; assay: Antiviral activity against Varicellla-zoster virus 07-1 infected in HEL cells assessed as inhibition of virus-induced cytopathicity; format: functional, organism-based; details: Human alphaherpesvirus 3, 07-1, HEL
# [18] = test system: Human alphaherpesvirus 3; assay: Antiviral activity against Varicellla-zoster virus Oka infected in HEL cells assessed as inhibition of virus-induced cytopathicity; format: functional, cell-based; details: Human alphaherpesvirus 3, strain Oka vaccine
# [19] = test system: Vaccinia virus; assay: Antiviral activity against Vaccinia virus Lederle infected in HEL cells assessed as inhibition of virus-induced cytopathicity; format: functional, organism-based; details: Orthopoxvirus vaccinia
# [20] = Cytotoxicity against cat CRFK cells; format: cell-based, Felis catus
# [21] = test system: Human betaherpesvirus 5; assay: Antiviral activity against Cytomegalovirus AD-169 infected in HEL cells assessed as inhibition of virus-induced cytopathicity; format: functional, organism-based; details: Human betaherpesvirus 5, AD169, HEL
# [22] = test system: Cytomegalovirus; assay: Antiviral activity against Cytomegalovirus Davis infected in HEL cells assessed as inhibition of virus-induced cytopathicity; format: functional, organism-based; details: Human betaherpesvirus 5, Davis
compound,measurement,setting,value
C[C@H](NP(=O)(Oc1ccccc1)O[C@H]1O[C@H](CO)[C@@H](O)[C@@H]1F)C(=O)OC1CCCCC1 (some centres not stated),t1/2,[1],1.07 h
same,t1/2,[2],2 h
C[C@H](NP(=O)(Oc1ccccc1)O[C@H]1O[C@H](CO)[C@@H](O)C1(F)F)C(=O)OC1CCCCC1 (mixture of isomers),EC50,[3],> 250 µM
same,EC50,[4],> 250 µM
same,MCC,[5],≥ 100 µM
same,EC50,[6],> 20 µM
same,EC50,[7],> 20 µM
same,Stability,[8],Stable
same,EC50,[9],> 20 µM
same,Stability,[10],Stable
same,EC50,[11],> 20 µM
same,EC50,[12],> 20 µM
same,IC50,[13],> 30 µM
same,IC50,[14],> 30 µM
same,Stability,[15],Stable
same,EC50,[16],> 20 µM
same,EC50,[17],> 20 µM
same,EC50,[18],> 20 µM
same,EC50,[19],> 20 µM
same,CC50,[20],> 100 µM
same,EC50,[21],> 20 µM
same,EC50,[22],> 20 µM
